Source: patent US20080254993A1, “Use of abscisic acid analogs to enhance growth control” (priority 2007, published 2008)

Tests used:
Kentucky bluegrass = assay: Greenhouse study on Kentucky bluegrass: turfgrass height, clip weight, turfgrass quality (Example 1); format: in vivo
Procedure: Greenhouse studies were conducted at the Research Farm of Valent BioSciences Corporation (Long Grove, Ill.). Grasses were grown in pots (18 cm in diameter and 18 cm in height) filled with Promix BX (available from Premier Horticulture Inc. Quakertown, Pa.). Grass was irrigated daily by an overhead irrigation system. The irrigation system was set up with multiple Tornado Mist Spray Heads (10 GPH at 40 PSI-Wetted diameter, NDS/Raindrip, Woodland Hills, Calif.). Spray heads were 1-meter apart from each other and 75 cm above grass canopy. Grass was cut with a scissor at 2.5 cm height and fertilizer (1 g/L all purpose fertilizer 20-20-20, available from The Scotts Company, Marysville, Ohio) was applied once per week.
(§1) Chemical solutions were prepared with distilled water. Tween 20 (0.05% v/v) was used as the surfactant when necessary. Trinexapac-ethyl (commercial product Primo Maxx, 11.3% active ingredient) was purchased from Syngenta Crop Protection Inc. (Greensboro, N.C.). ABA analogs, 8′ acetylene-ABA, acid (PBI-524), 8′ acetylene-ABA, ester (PBI-429), 8′ cyclopropane ester (PBI-696), or Tetralone, first carbon tail acetylene, ester (PBI-702), were obtained from Plant Biotechnology Institute, National Research Council of Canada (Saskatoon, Saskatchewan, Canada).
(§2) Chemical solutions were foliar applied to the turfgrass canopy at the rate of 4-gallons/1000 square foot (or 0.163 L/m^−2) immediately after finishing the preparation of solutions. After treatment, turfgrasses were arranged in a randomized complete block experimental design. Turfgrass quality, turfgrass height or clip fresh weight was measured on assigned dates. Turfgrass quality was visually rated on a 0-9 scale based on the color, uniformity, and density of the grass with 0 as the worst and 9 as the best. Turfgrass height was measured as the distance between canopy surface and soil. Clippings were collected form each plot; all plots were cut to a uniform height.
(§3) All experiments were randomized complete block experimental design. Data were analyzed by analysis of variance. Duncan's new multiple range tests at α=0.05 were used for mean separations.
Kentucky bluegrass sod was purchased from Deak sod farms, Inc. (Union Grove, Wis.). Grass was grown in the greenhouse for 94 days for establishment. Turfgrass was treated with one time foliar application of 50 ppm PBI-524, PBI-429, PBI-696 or PBI-702 alone or in combination with 250 ppm trinexapac-ethyl. The turfgrass was cut every 7 days. Turfgrass quality, turfgrass height, and clip weight were measured on days 7 and 35 after treatment.

creeping bentgrass = assay: Golf course green field study on creeping bentgrass with PBI-702: turfgrass height, soil moisture, turf quality (Example 3); format: in vivo, Penncross creeping bentgrass; details: for Soil moisture / Turfgrass height / Turf quality: 50 ppm PBI-702 alone; for Turf quality: visual 0-9 scale, 9 best
Procedure: Field studies were conducted at the nursery green or the practice green at Countryside golf course (Mundelein, Ill.). Both greens were sand based and growing Penncross creeping bentgrass. Grass was managed with typical Illinois golf course management practices.
as §1, §2, §3
Trinexapac-ethyl (25 ppm) or PBI-702 (50 ppm) were one time foliar applied alone or in combination to creeping bentgrass in the golf course green to investigate their effect on turfgrass quality, growth inhibition and soil moisture.

[1] = 7 days after treatment, 50 ppm ABA analog alone
[2] = 35 days after treatment, 50 ppm ABA analog alone

C#CC1(C)CC(=O)C=C(C)C1(O)C=CC(C)=CC(=O)O (stereo not shown) [PBI-524, 8′ acetylene-ABA, acid]
Clip Weight (Kentucky bluegrass; [1]): 0.5 g | Turfgrass height (Kentucky bluegrass; [1]): 5.8 cm | Turfgrass quality (Kentucky bluegrass; 7 days after treatment, 50 ppm ABA analog alone, visual 0-9 scale, 9 best): 6.6 | Turfgrass height and clip weight compared to the control (in words) (Kentucky bluegrass; 7 days after treatment, trinexapac-ethyl 250 ppm, PBI-524 or PBI-429 50 ppm, alone or combined): reduced turfgrass height and clip weight compared to the control | Clip Weight (Kentucky bluegrass; [2]): 1.9 g | Turfgrass height (Kentucky bluegrass; [2]): 8.0 cm | Turfgrass height and clip weight (in words) (Kentucky bluegrass; [2]): no longer reduced turfgrass height and clip weight

COC(=O)/C=C(/C)C#CC1(O)c2ccccc2C(=O)CC1(C)C (stereo not shown) [PBI-702, Tetralone, first carbon tail acetylene, ester]
Soil moisture (creeping bentgrass; 4 days after treatment): 12.3% | Turfgrass height (creeping bentgrass; 4 days after treatment): 6.7 mm | Soil moisture (creeping bentgrass; 7 days after treatment): 11.5% | Turfgrass height (creeping bentgrass; 7 days after treatment): 6.5 mm | Turf quality (creeping bentgrass; 7 days after treatment): 7.3 | Reducing growth (in words) (creeping bentgrass; 7 days after treatment, trinexapac-ethyl 25 ppm, PBI-702 50 ppm, alone or combined): effective at reducing growth | Soil moisture (creeping bentgrass; 38 days after treatment): 12.4% | Turfgrass height (creeping bentgrass; 38 days after treatment): 5.5 mm | Turf quality (creeping bentgrass; 38 days after treatment): 7.6
